Converted amounts (≈) assume the structure as drawn.
What was measured:
[1] = tested on: MDR M. tuberculosis; assay: MIC assay, broth microdilution; type: cell-based; conditions: for MIC: Mycobacterium tuberculosis, read-out: MIC M. 1b.
[2] = Chemical stability in NaCl/HCl/pepsin; type: physicochemical
[3] = Plasma stability, human; type: in vitro ADME
[4] = tested on: M. tuberculosis H37Rv; assay: In-vivo mouse survival; conditions: 50 img/kg
[5] = Plasma stability, mouse; type: in vitro ADME
[6] = tested on: M. aurum; assay: MIC assay, broth microdilution; type: cell-based; conditions: Mycolicibacterium aurum
[7] = Metabolic stability, mouse; type: in vitro ADME
[8] = tested on: M. smegmatis SG987; assay: MIC assay, broth microdilution; type: cell-based, Mycobacterium smegmatis; conditions: for MIC: Mycolicibacterium smegmatis, SG987, read-out: MIC M. smeg. SG987
From the text: The protocol used is the broth microdilution method in microtiter plates (MTP), based upon that detailed by the CLSI (Clinical and Laboratory Standards Institute (CLSI). 2006. Methods for Dilution Antimicrobial Susceptibility Tests for Bacteria that Grow Aerobically; Approved Standard. 7th edn. Document M7-A6. Clinical and Laboratory Standards Institute, Wayne, PA.).
Strain: Mycobacterium smegmatis, ATCC 700084, or other Mycobacterium strains (see table below).
Medium: The bacteria culture and the MIC were done using the following medium: MHB - Mueller-Hinton Broth + 0.05% Tween80, purchased from Difco, Tween80 has been added to avoid clumping of the bacteria.
This highest concentration is filled in the first row of the microtiter plate and further diluted in the culture medium for the Mycobacteria (Mueller-Hinton Broth and Middlebrook 7H9 broth). All solutions are freshly prepared under sterile conditions.
Resazurin salt powder (Sigma) is prepared at 0.01 % (wt/vol) in distilled water, sterilized by filtration through a 0.22 µm membrane and stored at 4°C for a week.
Ciprofloxacin, isoniaz-d and rifampicin can be used as reference compounds for control of the assay as well as a solvent control. Minimal inhibitory concentrations (MIC) are determined by the broth microdilution method. 50 µl of the compound solution in DMSO/MeOH are serially diluted directly in the microtiter plate by factor two with Mueller-Hinton broth (MHB)(Difco). Then the wells are inoculated with 50 µl of test organisms in MHB to give a final concentration of 5x10^5 CFU/ml. After microtiter plates are incubated at 37°C for 48 h, the optical density of each well is measured with a Nepheloscan Ascent 1.4 automatic plate reader (Labsystems, Vantaa, Finland). Then 30 µl of resazurin solution is added to each well and plates are allowed to incubate at 37°C for additional 24 h. A change from blue to pink indicates reduction of resazurin and therefore bacterial growth. The MIC is defined as the lowest drug concentration that prevents this colour change.

[9] = tested on: M. vaccae 10670; assay: MIC assay, broth microdilution; type: cell-based; conditions: for MIC: Mycolicibacterium vaccae, 10670
[10] = Metabolic stability, human; type: in vitro ADME
[11] = tested on: M fort.; assay: MIC assay, broth microdilution; type: cell-based
[12] = tested on: M. smegmatis SG987; assay: Agar diffusion assay; type: cell-based, Mycobacterium smegmatis; design: key to colonies in the inhibition zone: (p): few colonies in the inhibition zone; p: colonies in the inhibition zone; P: many colonies in the inhibition zone; A: faint indication of inhibition zone; conditions: for zone of inhibition at 1 µg/mL: Mycolicibacterium smegmatis; for colonies in the inhibition zone: at 1 µg/ml
Experimental: Antimicrobial activity is additionally determined by agar diffusion tests according to: European Pharmacopoeia, 3rd edition, 1997; 13, 118, Deutscher Apotheker Verlag Stuttgart
100 µl suspension of the test organism M. smegmatis SG987 with a density of McFarland standard 0.5 are inoculated into 34 ml of sterile melted agar medium (Nutrient agar from Serva Electrophoresis GmbH, Heidelberg, Germany) and poured into Petri dishes. Wells of 9 mm in diameter are cut in the agar and filled with 50 µl of the compound solution (for concentrations see Table 2). Compounds are dissolved in DMSO in a concentration of 1 mg/ml and further diluted in methanol to the final concentration. Growth inhibition zones around the agar wells are read after overnight incubation at 37°C.

[13] = tested on: Mycobacteria; conditions: existing anti-tuberculosis drugs, comparison values; cited from earlier work
[14] = Test compound 5 µM in 35mM NaCl, 85 mM HCl, appr. 2000 U pepsin
[15] = Human, test compound 5 µM in plasma
[16] = Mouse, test compound 5 µM in plasma
[17] = Mouse, test compound 1 µM in NADP (1.3 mM), G6P 3.3 mM, G6PDHase, DMSO
[18] = Human, test compound 1 µM in NADP (1.3 mM), G6P 3.3 mM, G6PDHase, DMSO

Structure (SMILES) | MIC [1] | Chemical Stability [2, 14] | Plasma Stability Human [3, 15] | Plasma Stability Mouse [5, 16] | Metabolic Stability Mouse [7, 17] | MIC [8] | MIC [9] | Metabolic Stability Human [10, 18] | zone of inhibition at 1 µg/mL [12] | further results
O=c1nc(N2CCC(c3ccccc3)CC2)sc2c([N+](=O)[O-])cc(C(F)(F)F)cc12 [Compound 1] | < 15 ng/mL | 82% | 96% | 71% | 75% | 4 ng/mL (≈ 9.19 nM) | 0.4 ng/mL (≈ 0.919 nM) | 120% |  | In-vivo Mouse Survival 4 wks [4]: 4 of 10; MIC [6]: > 100 ng/mL; MIC [11]: 12.5 ng/mL (≈ 28.7 nM)
O=c1nc(N2CCC(c3ccc(Cl)cc3)CC2)sc2c([N+](=O)[O-])cc(C(F)(F)F)cc12 [Compound 2] | 4 ng/mL (≈ 8.51 nM) | 52% | 86% | 88% | 39% | < 5 ng/mL | < 0.0012 ng/mL | 59% | 22 mm | MIC M. 1b. ([1]; M. 1b., MDR M. tuberculosis): 4 ng/mL (≈ 8.51 nM); MIC M. smeg. SG987 ([8]; M. smeg. SG987): < 5 ng/mL; MIC M. vaccae 10670 ([9]; M. vaccae 10670): < 0.0012 ng/mL
Cc1ccc(C2CCN(c3nc(=O)c4cc(C(F)(F)F)cc([N+](=O)[O-])c4s3)CC2)cc1 [Compound 3] | 8 ng/mL (≈ 17.8 nM) | 54% | 98% | 108% | 9% | < 5 ng/mL | < 0.0012 ng/mL | 30% | < 22 mm | 
O=c1nc(N2CCC(c3cccc(F)c3)CC2)sc2c([N+](=O)[O-])cc(C(F)(F)F)cc12 [Compound 4] | 16 ng/mL (≈ 35.3 nM) | 71% | 99% | 107% | 10% | < 5 ng/mL | < 0.0012 ng/mL | 28% | 24 mm | 
O=c1nc(N2CCC(c3ccc(F)c(F)c3)CC2)sc2c([N+](=O)[O-])cc(C(F)(F)F)cc12 [Compound 5] | 8 ng/mL (≈ 17 nM) | 63% | 124% | 111% | 28% | < 5 ng/mL | < 0.0012 ng/mL | 49% | 27 mm | 
O=c1nc(N2CCC(Cc3ccccc3)CC2)sc2c([N+](=O)[O-])cc(C(F)(F)F)cc12 [Compound 6] | 32 ng/mL (≈ 71.2 nM) | 55% | 98% | 108% | 0% | < 5 ng/mL | < 0.0012 ng/mL | 1% |  | 
Cc1cccc(C2CCN(c3nc(=O)c4cc(C(F)(F)F)cc([N+](=O)[O-])c4s3)CC2)c1 [Compound 7] | 8 ng/mL (≈ 17.8 nM) | 53% | 103% | 100% | 18% | < 5 ng/mL | < 0.0012 ng/mL | 21% |  | 
O=c1nc(N2CCC(c3ccccc3F)CC2)sc2c([N+](=O)[O-])cc(C(F)(F)F)cc12 [Compound 8] | 8 ng/mL (≈ 17.6 nM) | 61% | 107% | 105% | 78% | < 5 ng/mL | < 0.0012 ng/mL | 69% | 27 mm | 
C[C@H]1COC2(CCN(c3nc(=O)c4cc(C(F)(F)F)cc([N+](=O)[O-])c4s3)CC2)O1 [I (Ref.), reference compound] | < 15 ng/mL |  |  |  |  | < 5 ng/mL | 0.625 ng/mL (≈ 1.45 nM) |  | 17 mm | Chemical Stability ([2]; 5 µM): 98%; Plasma Stability Human ([3]; human, 5 µM): 98%; Plasma Stability Mouse ([5]; mouse, 5 µM): 45%; MIC [6]: > 100000 ng/mL; colonies in the inhibition zone [12]: p-P; Metabolic Stability Mouse ([7]; mouse, 1 µM): 97%; Metabolic Stability Human ([10]; human, 1 µM): 107%; MIC [11]: 1.56 ng/mL (≈ 3.62 nM)
O=c1nc(N2CCN(Cc3ccccc3)CC2)sc2c([N+](=O)[O-])cc(C(F)(F)F)cc12 [II (Ref.), reference compound] |  |  |  |  |  | 50 ng/mL (≈ 111 nM) | 50 ng/mL (≈ 111 nM) |  |  | MIC [11]: 50 ng/mL (≈ 111 nM)
O=C(O)c1cn(C2CC2)c2cc(N3CCNCC3)c(F)cc2c1=O [III (Ref.), ciprofloxacin, reference compound] |  |  |  |  |  | 200 ng/mL (≈ 604 nM) |  |  | 20 mm | colonies in the inhibition zone [12]: p
CC[C@@H](CO)NCCN[C@@H](CC)CO [ethambutol] |  |  |  |  |  |  |  |  |  | MIC [13]: 1000 to 5000 ng/mL
NNC(=O)c1ccncc1 [isoniazid] |  |  |  |  |  |  |  |  |  | MIC [13]: 20 to 200 ng/mL

From patent EP2570413A1, “Benzothiazinone derivatives as anti-tuberculosis agents” (The University Of Queensland, priority 2011, dated 2013)
